Source: ChEMBL document CHEMBL1122825, “Peptide sweeteners. 8. Synthesis and structure-taste relationship studies of L-aspartyl-D-alanyl tripeptides” (J Med Chem, 1985)
Where a SMILES comes first, the peptide text is derived from it. [ ]: non-standard residue; d: D form. Ac6c = NC1(C(=O)O)CCCCC1; Ac5c = NC1(C(=O)O)CCCC1; Ac4c = NC1(C(=O)O)CCC1; Deg = CCC(N)(CC)C(=O)O; Ac3c = NC1(C(=O)O)CC1; Aib = CC(C)(N)C(=O)O

Assay: Compound is evaluated for sweet potency; -=Bitter

Row | Compound | Sweetness potency
1 | COC(=O)C1(NC(=O)[C@H](C)NC(=O)[C@@H](N)CC(=O)O)CCCCCC1 | Bitter
2 | COC(=O)C1(NC(=O)[C@H](C)NC(=O)[C@@H](N)CC(=O)O)CCCCCCC1 | Bitter

Assay: Compound is evaluated for sweet potency; +=Sweet

Row | Compound | Sweetness potency
3 | COC(=O)C1(NC(=O)[C@H](C)NC(=O)[C@@H](N)CC(=O)O)CC1 (H-Asp-Ala-[Ac3c]-OMe) | Sweet
4 | COC(=O)C(C)(C)NC(=O)[C@H](C)NC(=O)[C@@H](N)CC(=O)O (H-Asp-Ala-[Aib]-OMe) | Sweet
5 | CCC(CC)(NC(=O)[C@H](C)NC(=O)[C@@H](N)CC(=O)O)C(=O)OC (H-Asp-Ala-[Deg]-OMe) | Sweet

Other lines, results leading:

Row | Sweetness potency | Compound
6 | Sweet | COC(=O)C1(NC(=O)[C@H](C)NC(=O)[C@@H](N)CC(=O)O)CCCCC1 (H-Asp-Ala-[Ac6c]-OMe)
7 | Sweet | COC(=O)C1(NC(=O)[C@H](C)NC(=O)[C@@H](N)CC(=O)O)CCCC1 (H-Asp-Ala-[Ac5c]-OMe)
8 | Sweet | COC(=O)C1(NC(=O)[C@H](C)NC(=O)[C@@H](N)CC(=O)O)CCC1 (H-Asp-Ala-[Ac4c]-OMe)
